# Tested on: human whole skin
# Test: Whole skin silver staining study, Franz type diffusion cell (Example 2)
# Settings: dressing hydrated with 200 μl saline, 24 hours, 32° C., FIG. 1
# Method: Skin staining studies were carried out using an adaptation of a Franz type horizontal glass diffusion cell as described in Dugard et al, 1984. Whole human skin and wound tissue samples (1 cm^2 discs) were punched out using an Osborne arch punch and placed epidermal side uppermost on the receptor chamber. The donor chamber was then gently placed on top of the receptor chamber. The whole cell was clamped together and placed into a water bath maintained at 32° C.±1° C. The underlying whole skin was bathed in saline.
# Individual silver-containing wound dressings (0.64 1 cm^2) were cut out and placed onto the centre of a piece of human whole skin. 200 μl of saline was placed into the donor chamber to hydrate each dressing to mimic a moderately exuding wound. Appoximately 5-10 mg of Flamazine cream was placed onto the skin and gently smoothed over the exposed skin surface by means of a small spatula. […] Each cell was left for 24 hours and images were taken using a Polaroid digital microscope camera.
structure (smiles),measurement,value
O=[N+]([O-])[O-].[Ag+] [silver nitrate],silver staining of skin,significant silver staining
